Laboratory results from PMC2862695 (The Journal of organic chemistry, 2009).

Tests used:
[1] = biological target: EGFR (Homo sapiens, UniProt P00533); assay: dissociation constant against EGFR; format: binding; details: read-out: Kd EGFR
[2] = test system: panel of 442 kinases; assay: kinase selectivity panel of 442 kinases; format: binding; details: 10 μM, 386 nonmutant
[3] = test system: iron-mediated neuronal damage; details: likely by reduced phosphorylation of hemeoxygenase by ERK; cited from earlier work
[4] = biological target: MEK1 (Homo sapiens, UniProt Q02750); assay: dissociation constant against MEK1; format: binding; details: read-out: Kd MEK1
Sequence of MEK1 (Q02750 whole entry): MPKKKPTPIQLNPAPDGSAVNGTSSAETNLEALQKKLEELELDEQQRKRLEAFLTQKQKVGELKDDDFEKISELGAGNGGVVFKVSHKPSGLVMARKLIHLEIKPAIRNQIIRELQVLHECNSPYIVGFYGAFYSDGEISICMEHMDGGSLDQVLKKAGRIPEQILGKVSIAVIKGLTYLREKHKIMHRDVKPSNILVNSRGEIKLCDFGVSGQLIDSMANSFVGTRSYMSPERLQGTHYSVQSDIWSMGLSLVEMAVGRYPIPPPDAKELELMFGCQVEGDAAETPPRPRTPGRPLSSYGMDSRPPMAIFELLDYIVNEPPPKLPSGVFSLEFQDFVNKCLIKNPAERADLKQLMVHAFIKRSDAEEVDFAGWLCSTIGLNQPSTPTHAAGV

Sequence of EGFR (P00533 25-1210): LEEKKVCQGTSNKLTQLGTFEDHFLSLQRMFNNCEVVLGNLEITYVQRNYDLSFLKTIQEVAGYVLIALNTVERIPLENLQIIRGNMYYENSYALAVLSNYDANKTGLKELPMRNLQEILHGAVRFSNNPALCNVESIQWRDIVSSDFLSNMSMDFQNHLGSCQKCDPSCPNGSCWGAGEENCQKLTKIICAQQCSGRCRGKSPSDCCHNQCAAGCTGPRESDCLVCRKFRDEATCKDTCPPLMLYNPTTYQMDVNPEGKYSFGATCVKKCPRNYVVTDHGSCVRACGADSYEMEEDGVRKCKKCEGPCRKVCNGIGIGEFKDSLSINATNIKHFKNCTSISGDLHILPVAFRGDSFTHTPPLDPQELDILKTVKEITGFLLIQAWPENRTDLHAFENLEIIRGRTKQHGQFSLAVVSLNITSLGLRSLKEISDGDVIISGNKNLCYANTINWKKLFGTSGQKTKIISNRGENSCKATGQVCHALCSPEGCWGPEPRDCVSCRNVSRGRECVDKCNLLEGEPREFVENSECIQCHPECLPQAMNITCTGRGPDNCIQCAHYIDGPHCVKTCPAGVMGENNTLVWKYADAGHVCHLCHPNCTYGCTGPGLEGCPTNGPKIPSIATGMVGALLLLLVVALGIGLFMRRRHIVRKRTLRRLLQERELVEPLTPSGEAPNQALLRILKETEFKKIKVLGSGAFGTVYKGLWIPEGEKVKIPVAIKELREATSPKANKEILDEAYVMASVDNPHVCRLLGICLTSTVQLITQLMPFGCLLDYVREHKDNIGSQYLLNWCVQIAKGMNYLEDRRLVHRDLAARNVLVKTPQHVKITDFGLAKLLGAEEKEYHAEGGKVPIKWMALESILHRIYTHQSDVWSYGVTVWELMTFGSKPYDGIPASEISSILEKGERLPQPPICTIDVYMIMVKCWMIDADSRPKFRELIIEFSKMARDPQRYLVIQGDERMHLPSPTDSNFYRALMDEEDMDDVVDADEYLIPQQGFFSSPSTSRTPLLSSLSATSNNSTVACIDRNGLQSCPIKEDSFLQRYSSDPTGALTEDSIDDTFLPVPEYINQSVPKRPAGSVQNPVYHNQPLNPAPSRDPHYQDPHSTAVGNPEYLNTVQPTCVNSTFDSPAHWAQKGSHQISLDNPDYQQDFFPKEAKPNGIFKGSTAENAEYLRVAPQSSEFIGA

Nc1[nH]nc2nnc(-c3c(-c4ccccc4)nn4ccccc34)cc12 [FR180204]
Kd [1]: 1.2 µM
number of nonmutant kinases with >90% inhibition of kinase activity [2]: 29/386
number of nonmutant kinases with >99% inhibition of kinase activity [2]: 12 out of 386
effect on iron-mediated neuronal damage caused by hemoglobin breakdown [3]: can reduce iron-mediated neuronal damage
Kd [4]: 8.7 µM
